Reference: ChEMBL document CHEMBL1201862, “PubChem BioAssay data set” (2004)
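Step 1: Grow cells in 96-well plates. Step 2: Expose to compound for 48 hours at 5 concentrations. Step 3: Interpolate endpoints linearly; if unreached, use highest concentration. Here, GI50 denotes the concentration required for 50% inhibition of growth.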 Activity calls are given as the source filed them. Cut-off read from the data, not from the text of the source: active = GI50 up to about 1.1 µM and inactive = higher.

Assays:
Assay in all cases: NCI-60 cell line screen, 48 h
786-0 = test system: 786-0
A498 = test system: A498
A549 = test system: A549
ACHN = test system: ACHN
CAKI-1 = test system: CAKI-1
CCRF-CEM = test system: CCRF-CEM
COLO 205 = test system: COLO 205
DLD-1 = test system: DLD-1
DMS-114 = test system: DMS-114
DMS-273 = test system: DMS-273
EKVX = test system: EKVX
HCC 2998 = test system: HCC 2998
HCT-116 = test system: HCT-116
HCT-15 = test system: HCT-15
HL-60 = test system: HL-60
HOP-18 = test system: HOP-18
HOP-62 = test system: HOP-62
HT-29 = test system: HT-29
IGROV-1 = test system: IGROV-1
K562 = test system: K562
KM-20L2 = test system: KM-20L2
KM12 = test system: KM12
LOX IMVI = test system: LOX IMVI
LXFL 529 = test system: LXFL 529
M14 = test system: M14
M19-MEL = test system: M19-MEL
MOLT-4 = test system: MOLT-4
Malme-3M = test system: Malme-3M
NCI-H226 = test system: NCI-H226
NCI-H23 = test system: NCI-H23
NCI-H460 = test system: NCI-H460
NCI-H522 = test system: NCI-H522
OVCAR-3 = test system: OVCAR-3
OVCAR-4 = test system: OVCAR-4
OVCAR-5 = test system: OVCAR-5
OVCAR-8 = test system: OVCAR-8
RPMI-8226 = test system: RPMI-8226
RXF 393 = test system: RXF 393
RXF 631 = test system: RXF 631
SF-268 = test system: SF-268
SF-295 = test system: SF-295
SF-539 = test system: SF-539
SK-MEL-2 = test system: SK-MEL-2
SK-MEL-5 = test system: SK-MEL-5
SK-OV-3 = test system: SK-OV-3
SN12C = test system: SN12C
SNB-75 = test system: SNB-75
SNB-78 = test system: SNB-78
SW-620 = test system: SW-620
TK-10 = test system: TK-10
U-251 = test system: U-251
UACC-257 = test system: UACC-257
UACC-62 = test system: UACC-62
UO-31 = test system: UO-31
XF498 = test system: XF498

Measured: GI50

Cc1c2c(cc[n+]1C)O[B-](c1ccccc1)(c1ccccc1)O2
inactive: 786-0 71.9 µM | A498 64 µM | A549 84.5 µM | ACHN 35.9 µM | CAKI-1 13.5 µM | CCRF-CEM 35.9 µM | COLO 205 32.6 µM | DLD-1 60 µM | DMS-114 61.1 µM | DMS-273 36.5 µM | EKVX 26.5 µM | HCC 2998 27.8 µM | HCT-116 46.7 µM | HL-60 35.1 µM | HOP-18 58.6 µM | HOP-62 > 100 µM | HT-29 > 100 µM | IGROV-1 90.6 µM | K562 46 µM | KM-20L2 71 µM | KM12 59.8 µM | LOX IMVI 51.2 µM | LXFL 529 42.9 µM | M14 41.5 µM | M19-MEL 49.1 µM | MOLT-4 35.5 µM | Malme-3M 65.5 µM | NCI-H226 48.6 µM | NCI-H23 > 100 µM | NCI-H460 50 µM | NCI-H522 36.8 µM | OVCAR-3 43.7 µM | OVCAR-4 64.4 µM | OVCAR-5 87.3 µM | OVCAR-8 67.3 µM | RPMI-8226 40.2 µM | RXF 393 52.1 µM | RXF 631 67.6 µM | SF-268 > 100 µM | SF-295 53.6 µM | SF-539 95.9 µM | SK-MEL-2 91.2 µM | SK-MEL-5 83.4 µM | SK-OV-3 94 µM | SN12C 51.8 µM | SNB-75 22.3 µM | SNB-78 88.3 µM | SW-620 26.8 µM | TK-10 55.2 µM | U-251 53.2 µM | UACC-257 55.5 µM | UACC-62 16.3 µM | UO-31 33.7 µM | XF498 35 µM
38.3 µM: HCT-15
